Assay results from PMC8972196, “A Set of Experimentally Validated Decoys for the Human CC Chemokine Receptor 7 (CCR7) Obtained by Virtual Screening” (Frontiers in Pharmacology, 2022).
Read-outs that look alike come from different tables or passages of the source.

Target: T1, human CCR7 (Homo sapiens, UniProt P32248)
T1 construct: expressed in transfected cells
T1 sequence (P32248 25-378): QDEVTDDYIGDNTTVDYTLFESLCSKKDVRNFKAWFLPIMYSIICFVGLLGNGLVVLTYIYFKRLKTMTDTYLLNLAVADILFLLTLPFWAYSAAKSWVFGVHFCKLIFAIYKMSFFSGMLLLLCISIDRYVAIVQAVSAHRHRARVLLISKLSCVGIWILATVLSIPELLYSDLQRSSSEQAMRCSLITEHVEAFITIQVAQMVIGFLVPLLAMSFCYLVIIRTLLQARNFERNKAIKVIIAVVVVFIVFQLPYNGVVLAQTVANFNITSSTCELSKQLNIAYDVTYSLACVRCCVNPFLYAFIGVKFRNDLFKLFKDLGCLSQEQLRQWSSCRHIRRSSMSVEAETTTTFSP
Experiment: CCL19-induced calcium mobilization assay, U87.CD4 cells expressing CCR7
Type: cell-based
Details: for IC50: read-out: IC50 [μM] block CCL19 induced calcium signaling
Outline: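 U87.CD4 cells stably expressing human CCR7, CXCR2 or CCR5 were seeded at 20,000 cells/well and incubated overnight at 37°C and 5% CO2. Cells were then incubated for 45 min at room temperature in the dark before calcium responses were recorded. CCR7 responses were induced with CCL19 and CXCR2 responses with CXCL8.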

[1] = CCL19-induced calcium signaling
[2] = classification of tested compounds as decoy or active
[3] = CCL19 induced calcium signaling
[4] = classification as decoy or active on CCR7

Row | SMILES | IC50 [1] [µM] | Decoy – 0 Active – 1 [2] | IC50 [3] [µM] | Decoy – 0 Active – 1 [4]
1 | CN(C)C(=O)c1cccc(NCC(=O)N(C)C2CCCCC2)c1 [C075, CN(C)C(=O)c1cccc(NCC(=O)N(C)C2CCCCC2)c1] | > 10 | 0 | – | –
2 | O=[N+]([O-])c1ccc(C(O)CNC(=S)NCc2ccc3c(c2)OCO3)cc1 (stereo not shown) [C030, OC(CNC(=S)NCc1ccc2OCOc2c1)c1ccc(cc1)[N+]([O-])=O] | > 30 | 0 | – | –
3 | COC(=O)c1ccccc1Nc1c(N2CCNC(=O)C2)c(=O)c1=O [C005, COC(=O)c1ccccc1Nc1c(N2CCNC(=O)C2)c(=O)c1=O] | > 50 | 0 | – | –
4 | Cc1ccc(CNC(=O)c2nnc(-c3ccc(S(=O)(=O)N4CCCC4)cc3)o2)o1 [C091, Cc1ccc(CNC(=O)c2nnc(-c3ccc(S(=O)(=O)N4CCCC4)cc3)o2)o1] | > 50 | 0 | – | –
5 | COc1ccc(S(=O)(=O)NC(c2ccc(F)cc2)c2nccn2C)cc1 (stereo not shown) [C267, Cn1ccnc1C(c2ccc(cc2)F)NS(=O)(=O)c3ccc(cc3)OC] | – | – | > 50 | 0
6 | O=c1c(Nc2cc(C(F)(F)F)cc(C(F)(F)F)c2)c(Nc2cc(C(F)(F)F)cc(C(F)(F)F)c2)c1=O [C018, O=C1C(NC2=CC(C(F)(F)F)=CC(C(F)(F)F)=C2)=C(NC3=CC(C(F)(F)F)=CC(C(F)(F)F)=C3)C1=O] | > 50 | 0 | – | –
7 | CN(C)C(=O)c1cccc(NC(=O)NCCc2ccccn2)c1 [C076, CN(C)C(=O)c1cccc(NC(=O)NCCc2ccccn2)c1] | > 10 | 0 | – | –
8 | N=C(Nc1ccccc1)C(N)=Nc1ccccc1 [C068, NC(=[NH+]c1ccccc1)C(=[NH2+])Nc1ccccc1] | > 10 | 0 | – | –
9 | C[C@@H](CNC(=O)N[C@H]1CCC[C@@H](S(C)(=O)=O)C1)c1cccs1 [C118, C[C@@H](CNC(=O)N[C@H]1CCC[C@@H](S(C)(=O)=O)C1)c1cccs1] | > 50 | 0 | – | –
10 | CN1CCN(C(=O)c2ccc(CN(c3ccccc3)S(=O)(=O)c3ccccc3)cc2)CC1 [C234, C[NH+]1CCN(CC1)C(=O)c2ccc(cc2)CN(c3ccccc3)S(=O)(=O)c4ccccc4] | – | – | > 50 | 0
11 | O=C1CCC(C(=O)N2CCCC2c2ccc3c(c2)OCO3)N1 (stereo not shown) [C231, O=C1CCC(C(=O)N2CCCC2c2ccc3c(c2)OCO3)N1] | – | – | > 50 | 0
12 | O=C(CN1CCCC1Cc1ccccc1Cl)NC1CCCCNC1=O (stereo not shown) [C284, O=C(CN1CCCC1Cc1ccccc1Cl)NC1CCCCNC1=O] | – | – | > 50 | 0
13 | CN(C)C(=O)c1ccc(CN2CCCC2c2cccc(Cl)c2)[nH]1 (stereo not shown) [C287, CN(C)C(=O)c1ccc(CN2CCCC2c2cccc(Cl)c2)[nH]1] | – | – | > 50 | 0
14 | C[C@@H](CNC(=O)N[C@H]1CCO[C@@H](C2CC2)C1)c1ccsc1 [C109, C[C@@H](CNC(=O)N[C@H]1CCO[C@@H](C2CC2)C1)c1ccsc1] | > 50 | 0 | – | –
15 | Cc1c(C(=O)NC2CC2c2ccc(F)cc2F)[nH]c2c1C(=O)CCC2 (stereo not shown) [C205, Cc1c(C(=O)NC2CC2c2ccc(F)cc2F)[nH]c2c1C(=O)CCC2] | – | – | > 50 | 0
16 | CC1CC(C)CN(C(=O)c2ccccc2NS(=O)(=O)c2ccc3[nH]c(=O)[nH]c3c2)C1 (stereo not shown) [C257, CC1CC(CN(C1)C(=O)c2ccccc2NS(=O)(=O)c3ccc4c(c3)[nH]c(=O)[nH]4)C] | – | – | > 50 | 0
17 | Cn1cc(C2CN(S(=O)(=O)c3ccc4c(c3)CCCC4)CC2CO)cn1 (stereo not shown) [C269, Cn1cc(cn1)C2CN(CC2CO)S(=O)(=O)c3ccc4c(c3)CCCC4] | – | – | > 50 | 0
18 | CC(C)Oc1ccc2ccccc2c1CNC(=O)N1CCC(C)(O)C1 (stereo not shown) [C169, CC(C)Oc1ccc2ccccc2c1CNC(=O)N1CCC(C)(O)C1] | – | – | > 50 | 0

Row | SMILES | IC50 [1] [µM] | Decoy – 0 Active – 1 [2] | IC50 [3] [µM] | Decoy – 0 Active – 1 [4]
19 | COC(=O)c1sccc1Nc1c(NC2CCCCC2)c(=O)c1=O [C006, COC(=O)c1sccc1Nc1c(NC2CCCCC2)c(=O)c1=O] | > 50 | 0 | – | –
20 | CC1CCCCN1C(=O)CNc1ccc(Cl)c(C(=O)N(C)C)c1 (stereo not shown) [C073, CC1CCCCN1C(=O)CNc1ccc(Cl)c(C(=O)N(C)C)c1] | > 10 | 0 | – | –
21 | CCOC(=O)c1c(C)c(CCC(=O)N[C@H](C)c2ccccc2)c(C)n1C [C082, CCOC(=O)c1c(C)c(CCC(=O)N[C@H](C)c2ccccc2)c(C)n1C] | > 50 | 0 | – | –
22 | O=C1C[C@H](NC(=O)CCn2cccn2)CN1 [C145, O=C1C[C@H](NC(=O)CCn2cccn2)CN1] | > 50 | 0 | – | –
23 | O=C(O)c1nc[nH]c1C(=O)NC(c1ccccc1)c1ccco1 (stereo not shown) [C190, O=C([O-])c1nc[nH]c1C(=O)NC(c1ccccc1)c1ccco1] | – | – | > 50 | 0
24 | CC(C)[C@@H](NC(=O)c1cccc(NC(=O)C2CC2)c1)c1ccccn1 [C155, CC(C)[C@@H](NC(=O)c1cccc(NC(=O)C2CC2)c1)c1ccccn1] | > 50 | 0 | – | –
25 | COC(=O)/C(=C\NC(=S)N/C=C(/OC(=N)c1ccccc1)C(=O)OC)NC(=O)c1ccccc1 [C042, S=C(N/C=C(C(OC)=O)/NC(C1=CC=CC=C1)=O)N/C=C(C(OC)=O)/OC(C2=CC=CC=C2)=N] | > 30 | 0 | – | –
26 | O=C(NCc1ccccc1)c1cn(C2CN(C(=O)C3CC3)C2)nn1 [C081, O=C(NCc1ccccc1)c1cn(C2CN(C(=O)C3CC3)C2)nn1] | > 50 | 0 | – | –
27 | O=C(NCc1ccccc1N1CCOCC1)c1nc2ccccc2c(=O)[nH]1 [C201, O=C(NCc1ccccc1N1CCOCC1)c1nc2ccccc2c(=O)[nH]1] | – | – | > 50 | 0
28 | C[S@+]([O-])c1cccc(NC(=O)NCC2(c3cccc(F)c3)CC2)c1 [C130, C[S@](=O)c1cccc(NC(=O)NCC2(c3cccc(F)c3)CC2)c1] | > 50 | 0 | – | –
29 | O=C(NCc1cccnc1-n1ccnc1)c1cc2ccccc2c(=O)[nH]1 [C215, O=C(NCc1cccnc1-n1ccnc1)c1cc2ccccc2c(=O)[nH]1] | – | – | > 50 | 0
30 | Cc1cc(NCCc2nccs2)nc(-c2cccc([N+](=O)[O-])c2)n1 [C097, Cc1cc(NCCc2nccs2)nc(-c2cccc([N+](=O)[O-])c2)n1] | > 50 | 0 | – | –
31 | O=c1oc2ccccc2n1CCCN1CCCC1c1ccc(O)cc1 (stereo not shown) [C189, O=c1oc2ccccc2n1CCC[NH+]1CCCC1c1ccc(O)cc1] | – | – | > 50 | 0
32 | CN(C)[C@H]1CCCC[C@@H]1Nc1c(NCc2cc(C(F)(F)F)cc(C(F)(F)F)c2)c(=O)c1=O [C020, O=C1C(N[C@H]2CCCC[C@@H]2N(C)C)=C(NCC3=CC(C(F)(F)F)=CC(C(F)(F)F)=C3)C1=O] | > 50 | 0 | – | –
33 | O=C1CC(NC(=O)N2CCCC2c2ccccc2)CN1c1ccccc1 (stereo not shown) [C198, O=C1CC(NC(=O)N2CCCC2c2ccccc2)CN1c1ccccc1] | – | – | > 50 | 0
34 | COc1ccc(N2CCN(c3c(NCc4cccc(Cl)c4)c(=O)c3=O)CC2)cc1 [C002, COc1ccc(N2CCN(c3c(NCc4cccc(Cl)c4)c(=O)c3=O)CC2)cc1] | > 50 | 0 | – | –
35 | CC1CN(C(=O)C(C)N2CCC(NS(=O)(=O)c3ccccc3)CC2)CC(C)O1 (stereo not shown) [C272, CC1CN(CC(O1)C)C(=O)C(C)[NH+]2CCC(CC2)NS(=O)(=O)c3ccccc3] | – | – | > 50 | 0
